In patent US5952330A, “Use of NK-1 receptor antagonists for treating mania” (Merck Sharp & Dohme Ltd., priority 1997, dated 1999):

Test system: cisplatin-induced emesis in ferrets
Assay: Ferret emesis, cisplatin-induced retches and vomits (Assay 3)
Format: in vivo
Settings: Mustela putorius; p.o., cisplatin 10 mg/kg i.v. 60 minutes after oral dosing; 4 h observation; read-out: ferret emesis: ID90
Protocol: ASSAY 3: Ferret Emesis Individually housed male ferrets (1.0-2.5 kg) are dosed orally by gavage with test compound. Ten minutes later they are fed with approximately 10 g of tinned cat food. At 60 minutes following oral dosing, cisplatin (10 mg/kg) is given i.v. via a jugular vein catheter inserted under a brief period of halothane anaesthesia. The catheter is then removed, the jugular vein ligated and the skin incision closed. The ferrets recover rapidly from the anaesthetic and are mobile within 10-20 minutes. The animals are observed continuously during recovery from the anaesthetic and for 4 hours following the cisplatin injection. The numbers of retches and vomits occurring during the 4 hours after cisplatin administration are recorded by trained observers.

**Q.** With C[C@@H](O[C@H]1OCCN(Cc2n[nH]c(=O)[nH]2)[C@H]1c1ccc(F)cc1)c1cc(C(F)(F)F)cc(C(F)(F)F)c1 [2-(R)-(1-(R)-(3,5-bis(trifluoromethyl)phenyl)ethoxy)-3-(S)-(4-fluorophenyl)-4-(3-(5-oxo-1H, 4H-1,2,4-triazolo)methyl)-morpholine] as the compound, how does the ED90 read?
**A.** < 3 mg/kg
